Among the data in the Kinase Knowledgebase extract (Sharma et al. 2016) are IC50 values, retold here.

Structures are written as SMILES.

The target in the assay is MAPK14 (human) (UniProt Q16539). Nature of the assay: Enzyme Assay.
Sequence of MAPK14 (human) (Q16539 whole entry, looked up): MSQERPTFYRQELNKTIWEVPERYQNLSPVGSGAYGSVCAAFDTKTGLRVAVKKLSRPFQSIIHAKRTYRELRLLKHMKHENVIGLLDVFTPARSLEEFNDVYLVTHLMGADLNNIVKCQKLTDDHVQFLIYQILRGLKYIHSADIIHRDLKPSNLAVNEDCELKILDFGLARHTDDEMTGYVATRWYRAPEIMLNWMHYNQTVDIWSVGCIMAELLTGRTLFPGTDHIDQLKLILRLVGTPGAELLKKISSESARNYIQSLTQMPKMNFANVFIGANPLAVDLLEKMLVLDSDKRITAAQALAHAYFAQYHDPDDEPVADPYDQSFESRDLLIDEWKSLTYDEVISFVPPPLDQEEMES

Consider `CC(C)(C)c1cc(NC(=O)N[C@H]2CC[C@@H](Oc3ccc4nnc(N5CCCCC5)n4c3)c3ccccc32)n(-c2cnn(CCCN3CCOCC3)c2)n1`, for which the IC50 was < 10 nM.
The figure for `CC(C)(C)c1cc(NC(=O)N[C@H]2CC[C@@H](Oc3ccc4nnc(N5CCCCC5)n4c3)c3ccccc32)n(-c2cccc(SCCO)c2)n1` is < 10 nM; for `Cc1ccc(-n2nc(C(C)(C)C)cc2NC(=O)N[C@H]2CC[C@@H](Oc3ccc4nnc([C@@H]5CCN(C)C5)n4c3)c3ccccc32)cc1` it is < 10 nM.
The value for `CCOC(=O)c1cccc(-n2nc(C(C)(C)C)cc2NC(=O)N[C@H]2CC[C@@H](Oc3ccc4nnc([C@@H]5CCCN5C)n4c3)c3ccccc32)c1` was < 10 nM; that for `Cc1ccc(-n2nc(C(C)(C)C)cc2NC(=O)N[C@H]2CC[C@@H](Oc3ccc4nnc(N5CCC[C@H](O)C5)n4c3)c3ccccc32)cc1` was < 10 nM.
The value for `C[C@H]1CCCCN1c1nnc2ccc(O[C@@H]3CC[C@H](NC(=O)Nc4cc(C(C)(C)C)nn4-c4ccc(CN5CCOCC5)cc4)c4ccccc43)cn12` was < 10 nM.
